Test results as given in BigSolDB 2.1.

Nc1ncnc2c1ncn2CCOCP(=O)(O)O
solubility (mole fraction)
Conditions	278.15 K	283.15 K	288.15 K	293.15 K	298.15 K	303.15 K	308.15 K	313.15 K	318.15 K	323.15 K
in DMF	0.000121	0.000203	0.000318	0.000491	0.000762	0.00115	0.00172	0.00254	0.00368	0.0053
in acetone	0.000103	0.000114	0.000145	0.00018	0.000231	0.000286	0.000359	0.000435	0.000531	0.00065
in ethanol	7.5e-05	9.4e-05	0.00012	0.000154	0.000191	0.000237	0.000291	0.000342	0.000438	0.000541
in isobutanol	0.000183	0.000211	0.000252	0.000296	0.000365	0.000433	0.000505	0.000597	0.00069	0.00081
in methanol	0.000352	0.000395	0.000455	0.000523	0.0006	0.000704	0.000805	0.000915	0.00105	0.00122
in n-heptane	0.000127	0.000139	0.000175	0.000217	0.000269	0.000325	0.000394	0.000473	0.00057	0.000679
in n-propanol	0.000217	0.000235	0.000279	0.000343	0.000409	0.000485	0.00058	0.000681	0.0008	0.00093
in toluene	5.7e-05	6.5e-05	8.7e-05	0.000115	0.000144	0.000185	0.000239	0.000295	0.000373	0.000464
